Experimental data reported in ChEMBL document CHEMBL3232771, “Synthesis and positive inotropic evaluation of [1,2,4]triazolo[3,4-a]phthalazine and tetrazolo[5,1-a]phthalazine derivatives bearing substituted piperazine moieties” (2014).
Activity calls are given as the source filed them. The calls are words filed in the database; no cut-off is given here.

Columns and labels:
[1] = tested on: Heart; assay: Positive inotropic activity in rabbit heart assessed as increase in left atrium stroke volume at 3 X 10^-5 M; type: functional
[2] = species: Oryctolagus cuniculus; assay: Positive inotropic activity in perfused beating rabbit atrium assessed as increase in stroke volume at 30 umol/l relative to control; type: functional, tissue-based; details: Cardiac atrium
[3] = species: Oryctolagus cuniculus; assay: Positive inotropic activity in perfused rabbit atrium assessed as increase in stroke volume at 1 X 10^-5 to 10^-4 M relative to control; details: Cardiac atrium
[4] = species: Oryctolagus cuniculus; assay: Positive inotropic activity in perfused rabbit atrium assessed as increase in stroke volume at 30 umol/l in presence of PKA inhibitor H-89 relative to control; type: functional, tissue-based; details: Cardiac atrium
[5] = species: Oryctolagus cuniculus; assay: Positive inotropic activity in perfused rabbit atrium assessed as increase in stroke volume at 30 umol/l in presence of adenylate cyclase activator forskolin relative to control; type: functional, tissue-based; details: Cardiac atrium
[6] = species: Oryctolagus cuniculus; assay: Positive inotropic activity in perfused rabbit atrium assessed as increase in stroke volume at 30 umol/l in presence of L-type Ca2+ channel blocker nifedipine relative to control; type: functional, tissue-based; details: Cardiac atrium
[7] = Oryctolagus cuniculus, Cardiac atrium

Row | Structure (SMILES) | Activity [1, 7] | Activity [2] | Activity [1] | also measured
1 | O=C(/C=C/c1ccc(Br)cc1)N1CCN(c2nn3cnnc3c3ccccc23)CC1 | inactive |  |  | 
2 | Cc1ccc(C(=O)N2CCN(c3nn4nnnc4c4ccccc34)CC2)cc1 |  | Active | 13.46% | 
3 | O=C(c1ccc(Cl)cc1)N1CCN(c2nn3nnnc3c3ccccc23)CC1 |  |  | 2.05% | 
4 | O=C(c1cccc(Cl)c1)N1CCN(c2nn3nnnc3c3ccccc23)CC1 |  |  | 0.23% | 
5 | Cc1[nH]c(=O)c(C#N)cc1-c1ccncc1 [MILRINONE] |  |  | 2.46% | 
6 | O=C(c1ccc(Cl)cc1)N1CCN(c2nn3cnnc3c3ccccc23)CC1 |  | Active | 13.33% | 
7 | Cc1ccc(/C=C/C(=O)N2CCN(c3nn4cnnc4c4ccccc34)CC2)cc1 |  | Active | 14.87% | Activity [3]: Active
8 | COc1ccc(CN2CCN(c3nn4nnnc4c4ccccc34)CC2)cc1 |  |  | 12.02% | 
9 | COc1cccc(/C=C/C(=O)N2CCN(c3nn4cnnc4c4ccccc34)CC2)c1 |  | Active | 4.13% | 
10 | O=C(c1cccc(Cl)c1)N1CCN(c2nn3cnnc3c3ccccc23)CC1 |  | Active | 2.56% | 
11 | O=C(c1ccc(F)cc1)N1CCN(c2nn3nnnc3c3ccccc23)CC1 |  | Active | 4.73% | 
12 | O=C(/C=C/c1cccc(Br)c1)N1CCN(c2nn3cnnc3c3ccccc23)CC1 | inactive |  |  | 
13 | O=C(c1ccc(Br)cc1)N1CCN(c2nn3cnnc3c3ccccc23)CC1 |  | Active | 3.65% | 
14 | O=C(/C=C/c1cccc(Cl)c1)N1CCN(c2nn3cnnc3c3ccccc23)CC1 | inactive |  |  | 
15 | O=C(c1ccc(Br)cc1)N1CCN(c2nn3nnnc3c3ccccc23)CC1 |  | Active | 7.49% | 
16 | COc1cccc(C(=O)N2CCN(c3nn4cnnc4c4ccccc34)CC2)c1 |  |  | 0.95% | 
17 | COc1cccc(/C=C/C(=O)N2CCN(c3nn4nnnc4c4ccccc34)CC2)c1 |  | Active | 5.35% | 
18 | Cc1ccc(C(=O)N2CCN(c3nn4cnnc4c4ccccc34)CC2)cc1 |  | Active | 19.15% | Activity [4]: inactive; Activity [3]: Active; Activity [5]: Active; Activity [6]: inactive

Row | Structure (SMILES) | Activity [1, 7] | Activity [2] | Activity [1] | also measured
19 | COc1ccc(C(=O)N2CCN(c3nn4cnnc4c4ccccc34)CC2)cc1 |  | Active | 3.68% | 
20 | O=C(/C=C/c1ccccc1)N1CCN(c2nn3nnnc3c3ccccc23)CC1 |  | Active | 8.09% | 
21 | Cc1ccc(/C=C/C(=O)N2CCN(c3nn4nnnc4c4ccccc34)CC2)cc1 |  | Active | 2.74% | 
22 | O=C(/C=C/c1ccc(F)cc1)N1CCN(c2nn3nnnc3c3ccccc23)CC1 | inactive |  |  | 
23 | O=C(/C=C/c1ccc(Cl)cc1)N1CCN(c2nn3cnnc3c3ccccc23)CC1 | inactive |  |  | 
24 | COc1cccc(C(=O)N2CCN(c3nn4nnnc4c4ccccc34)CC2)c1 |  |  | 1.94% | 
25 | O=C(/C=C/c1cccc(Br)c1)N1CCN(c2nn3nnnc3c3ccccc23)CC1 | inactive |  |  | 
26 | O=C(c1ccccc1)N1CCN(c2nn3nnnc3c3ccccc23)CC1 | inactive |  |  | 
27 | COc1ccc(C(=O)N2CCN(c3nn4nnnc4c4ccccc34)CC2)cc1 |  | Active | 9.39% | 
28 | O=C(/C=C/c1ccccc1)N1CCN(c2nn3cnnc3c3ccccc23)CC1 | inactive |  |  | 
29 | O=C(c1ccccc1)N1CCN(c2nn3cnnc3c3ccccc23)CC1 | inactive |  |  | 
30 | O=C(/C=C/c1ccc(Br)cc1)N1CCN(c2nn3nnnc3c3ccccc23)CC1 | inactive |  |  | 
31 | O=C(/C=C/c1ccc(Cl)cc1)N1CCN(c2nn3nnnc3c3ccccc23)CC1 | inactive |  |  | 
32 | O=C(c1cccc(Br)c1)N1CCN(c2nn3nnnc3c3ccccc23)CC1 | inactive |  |  | 
33 | O=C(/C=C/c1cccc(Cl)c1)N1CCN(c2nn3nnnc3c3ccccc23)CC1 | inactive |  |  | 
34 | O=C(c1ccc(F)cc1)N1CCN(c2nn3cnnc3c3ccccc23)CC1 |  | Active | 2.91% | 
35 | O=C(c1cccc(Br)c1)N1CCN(c2nn3cnnc3c3ccccc23)CC1 |  | Active | 8.49% | 
36 | O=C(/C=C/c1ccc(F)cc1)N1CCN(c2nn3cnnc3c3ccccc23)CC1 | inactive |  |  | 
